Entries after “also recorded” stand apart in the source; their conditions may differ.
Key:
[1] = Pharmacokinetics of prodrug and amphetamine after oral dosing to male dogs (Example 20); settings: for absorption of prodrug in the upper gastrointestinal tract: male dogs, oral gavage of prodrug; for AUC / Tmax: male, dog, in vivo, po, 0.5 mg
human faecal homogenates = assay: In vitro conversion of amphetamine prodrugs to amphetamine in human faecal homogenates; assay type: in vitro ADME; settings: for Amphetamine C0 / Amphetamine C6 / Amphetamine C24: human faecal homogenate, prodrug 10 μM, anaerobic, 37° C.; for Amphetamine C0: time 0; for Amphetamine C6: 6 hours; for Amphetamine C24: 24 hours; for conversion to the active by the microflora: summary of Table 4 incubations (dog, monkey, human faecal homogenates, rat caecal contents); for conversion to the active, human compared to dog faecal homogenates: human vs dog faecal homogenates
Experimental: (§1) Frozen samples were stored at −70° C. prior to analysis for the parent drug and pro-drug using a qualified LC-MS-MS assay.

dog faecal homogenates = assay: In vitro conversion of amphetamine prodrugs to amphetamine in dog faecal homogenates; assay type: in vitro ADME; settings: dog faecal homogenate, prodrug 10 μM, anaerobic, 37° C.; for Amphetamine C0: time 0; for Amphetamine C6: 6 hours; for Amphetamine C24: 24 hours
Experimental: as §1

[2] = Pharmacokinetics of prodrug and amphetamine after oral dosing to male cynomolgus monkeys (Example 21); settings: cynomolgus monkey
[3] = test system: monkey faecal homogenates; assay: In vitro conversion of amphetamine prodrugs to amphetamine in monkey faecal homogenates; assay type: in vitro ADME; settings: monkey faecal homogenate, prodrug 10 μM, anaerobic, 37° C., time 0
Experimental: as §1

[4] = Pharmacokinetics of amphetamine after oral dosing of d-amphetamine or Compound 1, or intranasal dosing of Compound 1, to male dogs (Example 23)
[5] = Pharmacokinetics of prodrug and amphetamine after intravenous dosing to male cynomolgus monkeys (Example 22)
[6] = test system: faecal homogenates prepared from three subjects; assay: Interindividual variability in amphetamine generation in human fecal homogenates (Example 25); settings: 100 μM, anaerobic, 37° C., up to 6 hours

Structure (SMILES): CO[C@H]1O[C@H](CO)[C@@H](O)[C@H](O)[C@H]1NNC(C)Cc1ccccc1 (stereo partly drawn) [Compound 10, (2R,3S,4R,5R,6S)-6-Methoxy-2-(hydroxymethyl)-5-[2-(1-phenylpropan-2-yl)hydrazin-1-yl]oxane-3,4-diol]
- absorption of prodrug in the upper gastrointestinal tract [1]: high absorption

Structure (SMILES): C[C@@H](Cc1ccccc1)NC(=O)[C@@H](C)O[C@H]1[C@H](O)[C@@H](CO)OC(O)[C@@H]1N (mixture of isomers) [Compound 4, (2R)-2-(((3R,4R,5S,6R)-3-amino-2,5-dihydroxy-6-(hydroxymethyl)tetrahydro-2H-pyran-4-yl)oxy)-N-((S)-1-phenylpropan-2-yl)propanamide]
- Amphetamine C0 (human faecal homogenates): BLQ
- Amphetamine C0 (dog faecal homogenates): BLQ

Structure (SMILES): C[C@@H](Cc1ccccc1)NC(=O)[C@@H](C)OC(=O)N[C@H]1C(O)O[C@H](CO)[C@@H](O)[C@@H]1O (stereo partly drawn) [Compound 8, (1R)-1-{[(2S)-1-Phenylpropan-2-yl]carbamoyl}ethyl N-[(3R,4R,5S,6R)-2,4,5-trihydroxy-6-(hydroxymethyl)oxan-3-yl]carbamate]
- Amphetamine C6 (human faecal homogenates): BLQ
- Amphetamine C24 (human faecal homogenates): BLQ
- Amphetamine C0 (human faecal homogenates): BLQ
- Amphetamine C6 (dog faecal homogenates): BLQ
- Amphetamine C24 (dog faecal homogenates): BLQ
- Amphetamine C0 (dog faecal homogenates): BLQ

Structure (SMILES): CC(=O)N[C@@H]1CO[C@H](CO)[C@@H](O)[C@@H]1O[C@H](C)C(=O)N[C@@H](C)Cc1ccccc1 [Compound 11, (R)-2-(((2R,3S,4R,5R)-5-Acetamido-3-hydroxy-2-(hydroxymethyl)tetrahydro-2H-pyran-4-yl)oxy)-N-((S)-1-phenylpropan-2-yl)propanamide]
- Amphetamine C6 (human faecal homogenates): BLQ
- Amphetamine C24 (human faecal homogenates): BLQ
- Amphetamine C0 (human faecal homogenates): BLQ
- Amphetamine C6 (dog faecal homogenates): BLQ
- Amphetamine C24 (dog faecal homogenates): BLQ
- Amphetamine C0 (dog faecal homogenates): BLQ

Structure (SMILES): CC(C)C(=O)N[C@@H](C=O)[C@@H](O[C@H](C)C(=O)N[C@@H](C)Cc1ccccc1)[C@H](O)[C@H](O)CO [Compound 18, N-((2R,3R,4R,5R)-4,5,6-trihydroxy-1-oxo-3-(((R)-1-oxo-1-(((S)-1-phenylpropan-2-yl)amino)propan-2-yl)oxy)hexan-2-yl)isobutyramide]
- Amphetamine C0 (human faecal homogenates): BLQ
- Amphetamine C0 (dog faecal homogenates): BLQ

Structure (SMILES): CC(=O)N[C@H]1C(O)O[C@H](CO)[C@@H](O)[C@@H]1O[C@@H](C)C(=O)N[C@@H](C)Cc1ccccc1 (stereo partly drawn) [Compound 14, (2S)-2-(((3R,4R,5S,6R)-3-Acetamido-2,5-dihydroxy-6-(hydroxymethyl)tetrahydro-2H-pyran-4-yl)oxy)-N-((S)-1-phenylpropan-2-yl)propanamide]
- Amphetamine C6 (human faecal homogenates): BLQ
- Amphetamine C24 (human faecal homogenates): BLQ
- Amphetamine C0 (human faecal homogenates): BLQ
- Amphetamine C0 (dog faecal homogenates): BLQ

Structure (SMILES): CCCCCCCC(=O)N[C@@H](C=O)[C@@H](O[C@H](C)C(=O)N[C@@H](C)Cc1ccccc1)[C@H](O)[C@H](O)CO [Compound 19, N-((2R,3R,4R,5R)-4,5,6-trihydroxy-1-oxo-3-(((R)-1-oxo-1-(((S)-1-phenylpropan-2-yl)amino)propan-2-yl)oxy)hexan-2-yl)octanamide]
- Amphetamine C6 (human faecal homogenates): BLQ
- Amphetamine C0 (human faecal homogenates): BLQ
- Amphetamine C0 (dog faecal homogenates): BLQ

Structure (SMILES): CC(=O)N[C@@H](C=O)[C@@H](O[C@H](C)C(=O)N[C@H](C)Cc1ccccc1)[C@H](O)[C@H](O)CO [Compound 13, (2R)-2-{[(2R,3R,4R,5R)-2-Acetamido-4,5,6-trihydroxy-1-oxohexan-3-yl]oxy}-N-[(2R)-1-phenylpropan-2-yl]propanamide]
- Amphetamine C0 (human faecal homogenates): BLQ
- conversion to the active by the microflora (human faecal homogenates): efficient conversion
- AUC [1]: 0.564 µg·h/mL
- Tmax [1]: 0.75 h

Structure (SMILES): C[C@@H](Cc1ccccc1)NC(=O)[C@H](O)[C@@H](O)[C@H](O)[C@H](O)CO [Compound 6, (2R,3S,4R,5R)-2,3,4,5,6-pentahydroxy-N-((S)-1-phenylpropan-2-yl)hexanamide]
- Amphetamine C0 (human faecal homogenates): BLQ
- Amphetamine C0 (dog faecal homogenates): BLQ
- absorption of prodrug in the upper gastrointestinal tract [1]: high absorption

Structure (SMILES): CCO[C@H]1O[C@H](CO)[C@@H](O)[C@H](O)[C@H]1NNC(C)Cc1ccccc1 (stereo partly drawn) [Compound 9, (2R,3S,4R,5R,6S)-6-Ethoxy-2-(hydroxymethyl)-5-[2-(1-phenylpropan-2-yl)hydrazin-1-yl]oxane-3,4-diol]
- absorption of prodrug in the upper gastrointestinal tract [1]: high absorption

Structure (SMILES): CCC(=O)N[C@H]1C(O)O[C@H](CO)[C@@H](O)[C@@H]1O[C@H](C)C(=O)N[C@@H](C)Cc1ccccc1 (stereo partly drawn) [Compound 16, (2R)-2-[(3R,4R,5S)-2,5-dihydroxy-6-(hydroxymethyl)-3-(propanoylamino)tetrahydropyran-4-yl]oxy-N-[(1S)-1-methyl-2-phenyl-ethyl]propanamide]
- Amphetamine C0 (human faecal homogenates): BLQ
- conversion to the active by the microflora (human faecal homogenates): efficient conversion
- Amphetamine C0 (dog faecal homogenates): BLQ
- AUC [1]: 0.273 µg·h/mL
- Tmax [1]: 0.5 h

Structure (SMILES): C[C@@H](Cc1ccccc1)NC(=O)[C@@H](C)O[C@H]1[C@H](O)[C@@H](CO)OC[C@H]1N [Compound 12, (R)-2-(((2R,3S,4R,5R)-5-Amino-3-hydroxy-2-(hydroxymethyl)tetrahydro-2H-pyran-4-yl)oxy)-N-((S)-1-phenylpropan-2-yl)propanamide]
- Amphetamine C6 (human faecal homogenates): BLQ
- Amphetamine C24 (human faecal homogenates): BLQ
- Amphetamine C0 (human faecal homogenates): BLQ
- Amphetamine C6 (dog faecal homogenates): BLQ
- Amphetamine C24 (dog faecal homogenates): BLQ
- Amphetamine C0 (dog faecal homogenates): BLQ

Structure (SMILES): CC(=O)N[C@H]1[C@@H]2OC[C@@H](O2)[C@@H](O)[C@@H]1O[C@H](C)C(=O)N[C@H](C)Cc1ccccc1 [Compound 17, (2R)-2-[[(2S,3R,4R)-4-acetamido-2-hydroxy-6,8-dioxabicyclo[3.2.1]octan-3-yl]oxy]-N-[(1R)-1-methyl-2-phenyl-ethyl]propanamide]
- Amphetamine C0 (human faecal homogenates): BLQ
- conversion to the active, human compared to dog faecal homogenates (human faecal homogenates): greater activity in human in vitro studies; also recorded: higher in human compared to dog faecal homogenates
- conversion to the active by the microflora (human faecal homogenates): efficient conversion
- Amphetamine C0 (dog faecal homogenates): BLQ
- AUC [1]: 0.213 µg·h/mL
- Tmax [1]: 0.5 h

Structure (SMILES): C[C@H](N)Cc1ccccc1 [d-Amphetamine, d-amphetamine]
- Tmax ([2]; in vivo, 1 mg/kg): ≤ 1 h
- AUC ([2]; plasma, 1 mg/kg): 4.44 µg·h/mL
- Tmax ([2]; plasma, 1 mg/kg): 2.4 h

Structure (SMILES): CC(=O)N[C@H]1C(O)O[C@H](CO)[C@H](O)C1O[C@H](C)C(=O)N[C@@H](C)Cc1ccccc1 (stereo partly drawn) [Compound 1, (2R)-2-(((3R,4R,5R,6R)-3-acetamido-2,5-dihydroxy-6-(hydroxymethyl)tetrahydro-2H-pyran-4-yl)oxy)-N-((S)-1-phenylpropan-2-yl)propanamide]
- conversion to the active by the microflora (human faecal homogenates): efficient conversion
- Amphetamine C0 [3]: BLQ
- AUC ([2]; in vivo, 0.5 mg): 0.187 µg·h/mL
- Tmax ([2]; in vivo, 0.5 mg): 1.1 h
- exposure to amphetamine, intranasal compared with oral administration of the prodrug ([4]; 4 mg intranasal vs 4 mg po): less than that observed following oral administration of the prodrug
- onset of amphetamine appearance in the systemic circulation ([4]; intranasal): did not enhance the onset
- conversion to the active amphetamine following systemic exposure [5]: no significant quantities
- amphetamine levels where detected (one time point between 4 and 8 hours) ([5]; 0.2 mg d-amphetamine free base equivalents/kg): near the limit of quantification
- variability of amphetamine generation between subjects [6]: relatively modest variability
- AUC [1]: 0.354 µg·h/mL
- Tmax [1]: 1 h

Structure (SMILES): CC(=O)N[C@H]1C(O)O[C@H](CO)[C@@H](O)[C@@H]1OCC(=O)N[C@@H](C)Cc1ccccc1 (stereo partly drawn) [Compound 15, 2-(((3R,4R,5S,6R)-3-acetamido-2,5-dihydroxy-6-(hydroxymethyl)tetrahydro-2H-pyran-4-yl)oxy)-N-((S)-1-phenylpropan-2-yl)acetamide]
- Amphetamine C0 (human faecal homogenates): BLQ
- Amphetamine C0 (dog faecal homogenates): BLQ

Structure (SMILES): C[C@@H](Cc1ccccc1)NC(=O)[C@H](O)[C@@H](O)[C@H](O[C@@H]1O[C@H](CO)[C@H](O)[C@H](O)[C@H]1O)[C@H](O)CO [Compound 5, (2R,3R,4R,5R)-2,3,5,6-tetrahydroxy-N-((S)-1-phenylpropan-2-yl)-4-(((2S,3R,4S,5R,6R)-3,4,5-trihydroxy-6-(hydroxymethyl)tetrahydro-2H-pyran-2-yl)oxy)hexanamide]
- conversion to the active, human compared to dog faecal homogenates (human faecal homogenates): greater activity in human in vitro studies; also recorded: higher in human compared to dog faecal homogenates
- conversion to the active by the microflora (human faecal homogenates): efficient conversion

From patent US20140073589A1, “Amphetamine Prodrugs” (Shire AG, priority 2012, published 2014)
